According to US11046753B2, “Antibody composition and buffer system therefor” (INNOVA BIOSCIENCES LTD, priority 2013, dated 2021):
“Also recorded” adds a separate entry of the source.

What was measured:
[1] = Carbodiimide (EDC)-mediated conjugation of goat anti-rabbit IgG to carboxylated gold nanoparticles in presence of additive, read by lateral flow assay
Procedure: Molecules were tested initially at pH 5 in EDC-mediated reactions with carboxylated gold particles (InnovaCoat GOLD, Innova Biosciences). Potentially interesting molecules from this screening exercise were further evaluated in NHS ester reactions, isothiocyanate reactions and thiolation reactions involving iminothiolane. All of these reactions are widely used in the antibody conjugation field and all would be expected to suffer from interference in the presence of glycine.
Lateral flow test strips (4 mm wide) were prepared from nitrocellulose membrane (Millipore Hi Flow plus 90) striped with goat anti-rabbit IgG (test line) and biotin-BSA (control line). Strips were housed in plastic cartridges and samples of gold conjugate (80 ul) were added to the sample pad. Cartridges were allowed to stand for 30 min and then read using a ESE-Quant GOLD reader—QIAGEN. Each sample was spiked with a fixed amount of streptavidin-gold (Innova biosciences—Product code: 250-0200), which binds to the control line, to check that each test strip had run correctly and that test line data was valid.
10 μg of goat anti-rabbit IgG (GAR) was used per ml of coated 40 nm nanoparticles with carboxyl functionality (InnovaCoat GOLD, Innova Biosciences) at […] in the presence of additives at 50 mM final concentration. Typically reactions were set up with the following additions: 40 μl of 40 nm InnovaCoat (carboxylated) gold nanopartcles, were incubated 5 minutes with 4 μl 0.1 mg/ml GAR, 20 μl water, and 80 μl of 100 mM MES buffer containing 100 mM of additive, pH 5.0. Next, 16 μl of 1 mM EDC was added and after 10 min incubation at 22° C., 20 μl of 10×TBS/1% Tween20 and 20 μl of water was added to give 2 OD conjugate.
Gold conjugates were mixed when required with rabbit IgG ((final concentration 50 ng/ml) at 22° C. Conjugates were 0.2 OD final concentration (i.e. 1/10 dilution from stock conjugates). Samples were run in triplicate on lateral flow test strips as described in Example 1.

[2] = Lightning-Link fluorescein conjugation of goat anti-rabbit IgG in presence of additive, fluorescence assay; conditions: 50 mM additive
Procedure: (§1) Black 96-well plates (Greiner Bio-One (code 655077)) were incubated with 50 ul rabbit IgG (1 ug/well) overnight at 4° C. The plates were blocked with TBS/0.1% BSA for 1 hour at room temperature and washed five times with TBS (wash buffer). Fluorescent antibody conjugates were serially diluted in TBS/0.1% BSA and 50 ul aliquots were added to wells in triplicate. After incubation at room temperature for 1 hour, the plate was washed five times and fluorescence emission was read in using a Tecan Infinite M200 plate reader with i-Control 1.4 software with the appropriate excitation/emission settings (fluorescein, 490 nm/535 nm; phycoeythrin, 535 nm/575 nm. Fluorescence data was plotted as a function of conjugate dilution. To compare results for additives tested in different experiments the data were transformed into a percentage of a control value (i.e. the signal for conjugate prepared in the absence of any test additive).
Reactions were carried out according to the manufacturer's standard protocol except that the additives were included at up to 50 mM concentration in conjugation reactions of Goat-anti-rabbit IgG using fluorescein Lightning-Link kit (product code 707-0010, Innova Biosciences, UK). Conjugates were tested according to the protocol described in Example 2.

[3] = Isothiocyanate (FITC) conjugation of rabbit IgG in presence of additive, dye to protein ratio; conditions: 50 mM additive, CHES pH 9.0
Procedure: Conjugates were desalted on PD10 columns (GE Healthcare) in TBS buffer and the absorbance values of the eluted solutions were determined at 280 nm and 495 nm. The ratio of moles dye to moles of protein for antibody dye conjugates in the presence of various additives is shown in FIG. 3.

[4] = NHS ester (fluorescein) conjugation of rabbit IgG in presence of additive, dye to protein ratio; conditions: 50 mM additive, sodium phosphate pH 8.0
Procedure: Conjugates were desalted on PD10 columns equilibrated in TBS buffer and absorbance values of the eluted solutions were determined at 280 nm and 495 nm. The ratio of moles dye to moles of protein for antibody dye conjugates in the presence of various additives is shown in FIG. 4.

[5] = Effect of additives on the thiolation reagent 2-iminothiolane (thiol release, DTNB, A405); conditions: 50 mM additive, pH 8.0, 30 minutes
Procedure: 20 μl of 2 mM 2-iminothiolane was added to each well and mixed quickly and the absorbance values were read at 405 nm every minute for 30 minutes using a Tecan Infinite M200 plate reader with i-Control 1.4 software. […] In control reaction, there is a steady linear increase in absorbance as the reagent is hydrolysed by water. […] The rising baseline can be attributed to the known sensitivity of 2-iminothiolane to hydrolysis at alkaline pH values.

[6] = Lightning-Link phycoerythrin conjugation of goat anti-rabbit IgG in presence of tricine, fluorescence assay
Procedure: as §1
The method was as described in Example 4, except that the Goat anti-rabbit IgG was conjugated to the fluorescent protein phycoerythrin (PE) using a Lightning-Link PE conjugation kit (703-0005). Tricine has little effect on Lightning-Link PE conjugation reactions in the range of concentrations tested. In this case the conjugate prepared at the highest concentration of tricine (50 mM) gave a signal that was 91% of control value in the absence of additive.

[7] = 25° C., cited from earlier work

Compound | % of Signal ([1]; pH 5) [%] | interference in carbodiimide-mediated antibody-gold nanoparticle conjugation reaction ([1]; pH 5) | interference in Lightning-Link fluorescein conjugation reaction [2] | ratio of moles dye to moles of protein versus control, FITC [3] | ratio of moles dye to moles of protein versus control, fluorescein NHS ester [4] | release of thiols from 2-iminothiolane versus control [5] | % of Signal ([1]; additive 50 mM final, MES pH 5.0, EDC, lateral flow test line signal) [%] | interference in carbodiimide-mediated antibody-gold nanoparticle conjugation reaction ([1]; pH 5, EDC) | % of control ([6]; 50 mM tricine) [%] | interference in Lightning-Link phycoerythrin conjugation reaction ([6]; up to 50 mM) | pKa of the carboxyl (acid) group [7] | pKa (COOH) ([7]; Table 1)
Glycine | 94 | no interference; also recorded: do not interfere; also recorded: does not | significant interference | significant interference | substantial interference | rapid hydrolysis and ring opening; also recorded: reacts rapidly | – | – | – | – | – | –
O=C(O)CNC(CO)(CO)CO [Tricine, N-tris(hydroxymethyl)methylglycine] | – | – | – | – | – | – | 105 | little or no effect | 91 | little effect; also recorded: modest degree of interference | ~2.3 | pKa1 = 2.3
